≈ marks a conversion by molar mass, not a printed value.
Assay: Solubility test in water (stepwise addition of water, ultrasonic waves, visual observation of precipitate)
Type: physicochemical
Conditions: for solubility at 1 min: from solid; for solubility in water as a fraction of the solubility of 2,7hpp2SF in water: one atmosphere, RT, relative to comparative 2,7hpp2SF
Protocol: In this example, the solubility of the organic compounds that can be used in the display apparatus of one embodiment of the present invention is described. Note that the solubility test was conducted at a pressure of one atmosphere at room temperature (RT).
(§1) The mixture was irradiated with ultrasonic waves for 1 minute. The mixture was visually observed, and a white powdered precipitate was observed. This means part of 2′,7′tBu-2,7hpp2SF remained undissolved. […] This process was repeated until the white powdered precipitate was not visually observed any more. Thus, the solubility was examined.
The mixture was irradiated with ultrasonic waves for 1 minute. Whether part of the mixture remained undissolved was visually confirmed, and a white powdered precipitate was observed. […] This process was repeated.
as §1, with “was” for “was visually”, “2,7hpp2SF” for “2′,7′tBu-2,7hpp2SF”

solubility at 1 min [mg/mL] | solubility in water as a fraction of the solubility of 2,7hpp2SF in water | weight that is dissolved in 1.0 mL of water (pressure of one atmosphere, room temperature (RT)) | SMILES
0.33 to 0.39 (≈ 559 to 660 µM) | – | – | c1ccc2c(c1)-c1ccccc1C21c2cc(N3CCCN4CCCN=C43)ccc2-c2ccc(N3CCCN4CCCN=C43)cc21 [2,7hpp2SF, 1,1′-(9,9′-spirobi[9H-fluorene]-2,7-diyl)bis(1,3,4,6,7,8-hexahydro-2H-pyrimido[1,2-a]pyrimidine), reference compound]
0.058 to 0.061 | less than or equal to ⅕ | – | CC(C)(C)c1ccc2c(c1)C1(c3cc(N4CCCN5CCCN=C54)ccc3-c3ccc(N4CCCN5CCCN=C54)cc31)c1cc(C(C)(C)C)ccc1-2 [Structural Formula (100), 1,1′-(2′,7′-di-tert-butyl-9,9′-spirobi[9H-fluorene]-2,7-diyl)bis(1,3,4,6,7,8-hexahydro-2H-pyrimido[1,2-a]pyrimidine)]
< 0.0023 | less than or equal to 1/140 | less than 0.0023 mg | CC(C)(C)c1ccc2c(c1)C1(c3ccccc3-c3ccc(N4CCCN5CCCN=C54)cc31)c1cc(C(C)(C)C)ccc1-2 [Structural Formula (101), 1-(2′,7′-di-tert-butyl-9,9′-spirobi[9H-fluoren]-2-yl)-1,3,4,6,7,8-hexahydro-2H-pyrimido[1,2-a]pyrimidine]

From patent US20230348400A1, “ORGANIC COMPOUND, LIGHT-EMITTING DEVICE, AND LIGHT-EMITTING APPARATUS” (SEMICONDUCTOR ENERGY LABORATORY CO., LTD., priority 2022, published 2023)
